# Source: US20090081285A1, “USE OF RADICAL-CAPTURING SUBSTANCES IN A TOPICAL PREPARATION FOR ANTIPYRETIC TREATMENT” (priority 2005, published 2009)
# Like-named read-outs stand apart in the source and are kept apart here.
# What was measured:
# [1] = Radical protection factor (RPF) by electron spin resonance (ESR); assay type: physicochemical; conditions: in vitro
# Source text: wherein RF=(S1−S2)/S1; RC=concentration of test substance (radicals/ml); PI=concentration of active substance preparation (mg/ml); S2=signal amplitude of a solution of antioxidant. The radical protection factor is preferably 800×10^14 radicals per mg of preparation, more preferably 30,000×10^14 radicals per mg of preparation.
# The radical protection factor (RPF) indicates the activity in binding free radicals by an antioxidant or radical scavenger compared to a test substance.
# As set forth above, the radical protection factor (RPF) determines the activity of a substance for binding free radicals as compared with a test substance. The test substance consists of a highly reactive, semi-stable radical which reacts with all known antioxidants. Such radicals include nitroxides such as Proxo (2,2,5,5-tetramethyl-1-dihydropyrrolinoxy nitroxide), Tempol (2,2,6,6-tetramethyl-1-piperidinoxy-4-ol nitroxide), DTBN (di-tert-butyl-nitroxide) or preferably DPPH (1,1-diphenyl-2-picryl-hydrazyl).
# The RPF is measured in such a way that the signal amplitude of the test radical is measured by electron spin resonance (ESR/EPR) before and after mixing with an antioxidant/radical scavenger and calculating the RPF therefrom. For a series of standard antioxidants the RPF is well-known.
# Ind. […] Starting from the known concentration of test substance (here: DPPH) or the number of its free radicals (radicals per ml), a signal amplitude S1 is measured using an ESR spectrometer. Both test radical and antioxidant are dissolved in a water/alcohol solution (e.g. 0.1 M). Thereafter, the signal amplitude S2 of the antioxidant is measured. The normalized difference between the two signal amplitudes is the reduction factor RF.
# The result of the radical reduction of the test substance RC×RF is normalized relative to the quantity of product input PI (mg/ml). RC is the amount of the test substance, i.e., the known number of radicals in the test substance. The radical protection factor is calculated by means of the following equation:
# RPF=N×10^14[radicals per mg],
# wherein N is a positive real number and RPF for simplification may be reduced to the numerical value of N. This reduction will be used in the examples of the present invention.
# The radical protection factor can be determined using an ESR spectrometer (GALENUS GmbH, Berlin, Germany) and is a magnitude for characterizing products with respect to their capability of binding free radicals. The method is an in vitro method in which no individual properties of the user would influence the antioxidants.
# [2] = standard antioxidants, RPF stated as well-known; cited from earlier work
# [3] = radical scavenger raw materials
Compound,"radical protection factor (RPF) [1, 3]",radical protection factor (RPF) [2],also measured
O=C(OC[C@H]1O[C@@H](OC(=O)c2cc(O)c(O)c(OC(=O)c3cc(O)c(O)c(O)c3)c2)[C@H](OC(=O)c2cc(O)c(O)c(OC(=O)c3cc(O)c(O)c(O)c3)c2)[C@@H](OC(=O)c2cc(O)c(O)c(OC(=O)c3cc(O)c(O)c(O)c3)c2)[C@@H]1OC(=O)c1cc(O)c(O)c(OC(=O)c2cc(O)c(O)c(O)c2)c1)c1cc(O)c(O)c(OC(=O)c2cc(O)c(O)c(O)c2)c1 [tannic acid],"310,000 ×10^14 radicals/mg",,
cyclodextrins,,,"radical protection factor (RPF) ([1]; printed without unit (b55-56: RPF=N×10^14 radicals per mg, reduced to N)): 0"
O=C1O[C@H]([C@@H](O)CO)C([O-])=C1OP(=O)([O-])[O-].[Na+].[Na+].[Na+] [sodium ascorbyl phosphate],"35,000 ×10^14 radicals/mg",,
CC1=C(/C=C/C(C)=C/C=C/C(C)=C/CO)C(C)(C)CCC1 [all-trans-retinol],,827 ×10^14 radicals/mg,
CC(=O)OC/C=C(C)/C=C/C=C(C)/C=C/C1=C(C)CCCC1(C)C [all-trans-retinol acetate],,196 ×10^14 radicals/mg,
O=C(/C=C/c1ccc(O)c(O)c1)O[C@H](Cc1ccc(O)c(O)c1)C(=O)O [rosmarinic acid],"36,000-68,000 ×10^14 radicals/mg",,
Cc1c(C)c2c(c(C)c1O)CCC(C)(CCCC(C)CCCC(C)CCCC(C)C)O2 (racemic) [DL-α-tocopherol],,"41,200 ×10^14 radicals/mg",
CC(=O)Oc1c(C)c(C)c2c(c1C)CCC(C)(CCC[C@H](C)CCC[C@H](C)CCCC(C)C)O2 (stereo partly drawn) [α-tocopheryl acetate],,about 48 ×10^14 radicals/mg,
